Assays:
Format in all cases: in vivo
[1] = tested on: Echinochloa crus-galli var. formosensis; experiment: Test Example 6: herbicidal effect test by application during growth period of paddy rice (low dose); settings: 7.5 g per 10 ares, applied seven days after sowing, flooded pots, 14 days after application; for inhibition at 75 g/ha: Echinochloa crus-galli, read-out: weed inhibition rate
Procedure, shortened: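 Paddy-soil pots, flooded ~3 cm after sowing weed seeds at 0-1 cm depth, greenhouse-grown. Seven days after sowing, diluted emulsifiable concentrate applied by dropper at 7.5 g active ingredient per 10 ares. Weed inhibition rate (%) scored 14 days after application, in duplicate.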

[2] = tested on: Scirpus juncoides; experiment: Test Example 2: herbicidal effect test by application during growth period of paddy rice; settings: 120 g per 10 ares, applied seven days after sowing, flooded pots, 14 days after application; for inhibition at 1200 g/ha: Schoenoplectiella juncoides, read-out: weed inhibition rate
Procedure, shortened: (§1)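 Greenhouse pots of flooded paddy soil, seeded shallowly with 30 seeds per weed, are treated on day 7 by dropper with diluted emulsifiable concentrate equal to 120 g a.i./10 a. Duplicate pots are scored for inhibition rate 14 days post-application.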

[3] = tested on: Echinochloa crus-galli var. formosensis; experiment: as above; settings: 120 g per 10 ares, applied seven days after sowing, flooded pots, 14 days after application; for inhibition at 1200 g/ha: Echinochloa crus-galli, read-out: weed inhibition rate
Procedure, shortened: as §1

[4] = tested on: Echinochloa crus-galli; experiment: Test Example 3: herbicidal effect test by soil application in upland field; settings: 120 g per 10 ares, sprayed one day after sowing, 14 days after application; for inhibition at 1200 g/ha: Echinochloa crus-galli, read-out: weed inhibition rate
Procedure, shortened: (§2)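 Pre-emergence test: seeds mixed into top 1 cm of alluvial loam upland soil in pots; emulsifiable concentrate diluted in water sprayed on soil one day after sowing at 100 L/10 a, 120 g a.i./10 a. Weed inhibition rate (%) scored at 14 days, in duplicate.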

[5] = tested on: Digitaria ciliaris; experiment: as above; settings: 120 g per 10 ares, sprayed one day after sowing, 14 days after application; for inhibition at 1200 g/ha: Digitaria ciliaris, read-out: weed inhibition rate
Procedure, shortened: as §2

[6] = tested on: Scirpus juncoides; experiment: Test Example 1: herbicidal effect test by soil application in paddy rice; settings: 120 g active ingredient per 10 ares, applied immediately after sowing, flooded pots, 14 days after application; for pest or weed control at 1200 g/ha: Schoenoplectiella juncoides, soil, 336 h, read-out: weed inhibition rate
Procedure, shortened: (§3)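 Weeds sown 0–1 cm deep (30 seeds each) into fertilized, puddled paddy soil in Wagner pots. Pots are flooded immediately, water held near 3 cm, and the diluted emulsifiable concentrate is dripped in at once, delivering 120 g active ingredient per 10 ares under glass-greenhouse management.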

[7] = tested on: Echinochloa crus-galli var. formosensis; experiment: as above; settings: 120 g active ingredient per 10 ares, applied immediately after sowing, flooded pots, 14 days after application; for pest or weed control at 1200 g/ha: Echinochloa crus-galli, soil, 336 h, read-out: weed inhibition rate
Procedure, shortened: as §3

[8] = tested on: Echinochloa crus-galli; experiment: Test Example 4: herbicidal effect test by stem and leaf treatment in upland field; settings: 120 g per 10 ares, sprayed seven days after sowing, upland soil, 14 days after application; for inhibition at 1200 g/ha: Echinochloa crus-galli, read-out: weed inhibition rate
[9] = tested on: Digitaria ciliaris; experiment: as above; settings: 120 g per 10 ares, sprayed seven days after sowing, upland soil, 14 days after application; for inhibition at 1200 g/ha: Digitaria ciliaris, read-out: weed inhibition rate
[10] = tested on: Echinochloa crus-galli var. formosensis; experiment: Test Example 5: herbicidal effect test by soil application in paddy rice (low dose); settings: 7.5 g per 10 ares, applied immediately after sowing, flooded pots, 14 days after application; for inhibition at 75 g/ha: Echinochloa crus-galli, soil, 336 h, read-out: weed inhibition rate
Procedure, shortened: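 7.5 g a.i./10 a applied by dropper into ~3 cm floodwater immediately post-sowing (seeds 0–1 cm, 30 per species; puddled fertilized paddy soil, glasshouse). Duplicates; day-14 inhibition %.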

[11] = tested on: Echinochloa crus-galli; experiment: Test Example 7: herbicidal effect test by soil application in upland field (low dose); settings: 7.5 g per 10 ares, sprayed one day after sowing, 14 days after application; for inhibition at 75 g/ha: Echinochloa crus-galli, read-out: weed inhibition rate
Procedure, shortened: (§4)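 Duplicate pots of alluvial loam, seeds incorporated in the surface 1 cm. Soil surface sprayed 1 d after sowing (EC in water, 100 L/10 a; 7.5 g a.i./10 a). Endpoint: % inhibition, day 14.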

[12] = tested on: Digitaria ciliaris; experiment: as above; settings: 7.5 g per 10 ares, sprayed one day after sowing, 14 days after application; for inhibition at 75 g/ha: Digitaria ciliaris, read-out: weed inhibition rate
Procedure, shortened: as §4

[13] = tested on: Echinochloa crus-galli; experiment: Test Example 8: herbicidal effect test by stem and leaf treatment in upland field (low dose); settings: 7.5 g per 10 ares, sprayed seven days after sowing, upland soil, 14 days after application; for inhibition at 75 g/ha: Echinochloa crus-galli, read-out: weed inhibition rate
[14] = tested on: Digitaria ciliaris; experiment: as above; settings: 7.5 g per 10 ares, sprayed seven days after sowing, upland soil, 14 days after application; for inhibition at 75 g/ha: Digitaria ciliaris, read-out: weed inhibition rate

CC(C)[C@]12C[C@@H](OCc3ccccn3)[C@](C)(C[C@@H]1I)O2 [1-785, 2-[[(18,2R,4R,58)-5-iodo-4-isopropyl-1-methyl-7-oxabicyclo[2.2.1]heptan-2-yl]oxymethyl]pyridine]
≥ 80%: weed inhibition rate [1] | weed inhibition rate [2] | weed inhibition rate [3] | weed inhibition rate [4] | weed inhibition rate [5] | weed inhibition rate [6] | weed inhibition rate [7] | weed inhibition rate [8] | weed inhibition rate [9] | weed inhibition rate [10] | weed inhibition rate [11] | weed inhibition rate [12] | weed inhibition rate [13] | weed inhibition rate [14]

CC(C)C12CC(OCc3ccccc3Cl)C(C)(CC1Cl)O2 (stereo not shown) [1-1292, 5-chloro-2-[(2-chlorophenyl)methoxy]-1-methyl-4-isopropyl-7-oxabicyclo[2.2.1]heptane]
≥ 80%: inhibition at 75 g/ha [1] | inhibition at 1200 g/ha [2] | inhibition at 1200 g/ha [3] | inhibition at 1200 g/ha [4] | inhibition at 1200 g/ha [5] | pest or weed control at 1200 g/ha [6] | pest or weed control at 1200 g/ha [7] | inhibition at 1200 g/ha [8] | inhibition at 1200 g/ha [9] | inhibition at 75 g/ha [10] | inhibition at 75 g/ha [11] | inhibition at 75 g/ha [12] | inhibition at 75 g/ha [13] | inhibition at 75 g/ha [14]

CC#CCOC1C[C@]2(C(C)C)O[C@@]1(C)C[C@@H]2OC (mixture of isomers) [1-801, (1R,2S,4S,SR)-5-but-2-ynoxy-1-isopropyl-2-methoxy-4-methyl-7-oxabicyclo[2.2.1]heptane]
≥ 80%: inhibition at 75 g/ha [1] | inhibition at 1200 g/ha [2] | inhibition at 1200 g/ha [3] | inhibition at 1200 g/ha [4] | inhibition at 1200 g/ha [5] | pest or weed control at 1200 g/ha [6] | pest or weed control at 1200 g/ha [7] | inhibition at 1200 g/ha [8] | inhibition at 1200 g/ha [9] | inhibition at 75 g/ha [10] | inhibition at 75 g/ha [11] | inhibition at 75 g/ha [12] | inhibition at 75 g/ha [13] | inhibition at 75 g/ha [14]

CC(C)C12C=CC(C)(O1)C(OCc1ccccc1F)C2 (stereo not shown) [3-754, 5-[(2-fluorophenyl)methoxy]-4-methyl-1-isopropyl-7-oxabicyclo[2.2.1]hept-2-ene]
≥ 80%: inhibition at 75 g/ha [1] | inhibition at 1200 g/ha [2] | inhibition at 1200 g/ha [3] | inhibition at 1200 g/ha [4] | inhibition at 1200 g/ha [5] | pest or weed control at 1200 g/ha [6] | pest or weed control at 1200 g/ha [7] | inhibition at 1200 g/ha [8] | inhibition at 1200 g/ha [9] | inhibition at 75 g/ha [10] | inhibition at 75 g/ha [11] | inhibition at 75 g/ha [12] | inhibition at 75 g/ha [13] | inhibition at 75 g/ha [14]

CC(C)C12CC(OCc3c(F)cccc3Cl)C(C)(CC1I)O2 (stereo not shown) [1-1448, 5-[(2-chloro-6-fluoro-phenyl)methoxy]-2-iodo-1-isopropyl-4-methyl-7-oxabicyclo[2.2.1]heptane]
≥ 80%: inhibition at 75 g/ha [1] | inhibition at 1200 g/ha [2] | inhibition at 1200 g/ha [3] | inhibition at 1200 g/ha [4] | inhibition at 1200 g/ha [5] | pest or weed control at 1200 g/ha [6] | pest or weed control at 1200 g/ha [7] | inhibition at 1200 g/ha [8] | inhibition at 1200 g/ha [9] | inhibition at 75 g/ha [10] | inhibition at 75 g/ha [11] | inhibition at 75 g/ha [12] | inhibition at 75 g/ha [13] | inhibition at 75 g/ha [14]

Source: patent EP4707280A1, “1,4-CINEOLE DERIVATIVE AND INTERMEDIATE THEREOF, HERBICIDE CONTAINING SAID DERIVATIVE AS ACTIVE INGREDIENT, METHOD FOR USING HERBICIDE, AND METHOD FOR PREPARING AGROCHEMICAL COMPOSITION” (HOKKO CHEMICAL INDUSTRY CO., LTD., priority 2023, dated 2024)
